In patent publication US20080234262A1 (Wyeth, priority 2007, published 2008):

How the values were obtained:
[1] = system: breast line MDA468; experiment: In vitro cell culture growth assay (MTS), MDA468; format: cell-based, human; conditions: MDA468 cells, three days after drug treatment
Description: Human tumor cell lines used include prostate lines LNCap and PC3MM2, breast lines MDA468, MCF7, renal line HTB44 (A498), colon line HCT116, and ovarian line OVCAR3. Cells were plated in 96-well culture plates. One day following plating, the inhibitors were added to cells. Three days after drug treatment, viable cell densities were determined by metabolic conversion (by viable cells) of the dye MTS, a well established cell proliferation assay. The assays were performed using an assay kit purchased from Promega Corp. (Madison, Wis.) following the protocol supplied with the kit. The MTS assay results were read in a 96-well plate reader by measuring absorbance at 490 nm. The effect of each treatment was calculated as percent of control growth relative to the vehicle-treated cells grown in the same culture plate.

[2] = biological target: PI3K (Homo sapiens, UniProt P42336); experiment: Fluorescence polarization assay for PI3K; format: biochemical; conditions: PI3Kα; read-out: PI3Kα IC50;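 note: PI3K kinase reaction on PIP2 with ATP, 30-60 min, product sensed by GST-GRP with red probe in fluorescence polarization (mP), controls without enzyme and at zero time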
PI3K, sequence (P42336 whole entry): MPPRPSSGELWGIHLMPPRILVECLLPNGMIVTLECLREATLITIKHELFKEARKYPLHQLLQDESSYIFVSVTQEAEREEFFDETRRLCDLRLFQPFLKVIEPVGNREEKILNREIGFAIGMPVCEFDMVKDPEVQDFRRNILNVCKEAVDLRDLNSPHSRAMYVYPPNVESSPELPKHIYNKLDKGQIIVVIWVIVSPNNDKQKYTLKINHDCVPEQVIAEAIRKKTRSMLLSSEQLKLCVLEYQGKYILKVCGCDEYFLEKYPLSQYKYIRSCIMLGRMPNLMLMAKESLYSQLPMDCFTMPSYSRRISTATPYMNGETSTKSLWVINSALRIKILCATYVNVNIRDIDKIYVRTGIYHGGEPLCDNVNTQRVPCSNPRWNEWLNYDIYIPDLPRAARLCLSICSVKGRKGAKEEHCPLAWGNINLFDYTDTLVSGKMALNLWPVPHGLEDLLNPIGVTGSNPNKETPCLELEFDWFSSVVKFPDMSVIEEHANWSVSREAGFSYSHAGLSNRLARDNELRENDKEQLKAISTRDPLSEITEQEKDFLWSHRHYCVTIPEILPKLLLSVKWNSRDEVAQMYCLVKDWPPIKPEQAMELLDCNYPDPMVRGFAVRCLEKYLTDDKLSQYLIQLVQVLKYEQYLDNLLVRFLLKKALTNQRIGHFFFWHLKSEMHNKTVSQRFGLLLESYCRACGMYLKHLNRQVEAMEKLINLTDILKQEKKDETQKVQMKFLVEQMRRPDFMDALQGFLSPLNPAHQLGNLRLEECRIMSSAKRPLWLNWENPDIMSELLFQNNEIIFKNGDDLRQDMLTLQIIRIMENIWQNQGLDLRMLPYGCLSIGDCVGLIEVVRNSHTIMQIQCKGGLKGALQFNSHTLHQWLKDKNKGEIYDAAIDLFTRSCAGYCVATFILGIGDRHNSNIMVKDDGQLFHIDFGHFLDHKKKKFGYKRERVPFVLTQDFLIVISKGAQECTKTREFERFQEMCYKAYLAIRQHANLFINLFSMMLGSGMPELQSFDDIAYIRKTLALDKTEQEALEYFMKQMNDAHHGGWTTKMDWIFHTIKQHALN
PI3K, sequence (P27986 whole entry partner): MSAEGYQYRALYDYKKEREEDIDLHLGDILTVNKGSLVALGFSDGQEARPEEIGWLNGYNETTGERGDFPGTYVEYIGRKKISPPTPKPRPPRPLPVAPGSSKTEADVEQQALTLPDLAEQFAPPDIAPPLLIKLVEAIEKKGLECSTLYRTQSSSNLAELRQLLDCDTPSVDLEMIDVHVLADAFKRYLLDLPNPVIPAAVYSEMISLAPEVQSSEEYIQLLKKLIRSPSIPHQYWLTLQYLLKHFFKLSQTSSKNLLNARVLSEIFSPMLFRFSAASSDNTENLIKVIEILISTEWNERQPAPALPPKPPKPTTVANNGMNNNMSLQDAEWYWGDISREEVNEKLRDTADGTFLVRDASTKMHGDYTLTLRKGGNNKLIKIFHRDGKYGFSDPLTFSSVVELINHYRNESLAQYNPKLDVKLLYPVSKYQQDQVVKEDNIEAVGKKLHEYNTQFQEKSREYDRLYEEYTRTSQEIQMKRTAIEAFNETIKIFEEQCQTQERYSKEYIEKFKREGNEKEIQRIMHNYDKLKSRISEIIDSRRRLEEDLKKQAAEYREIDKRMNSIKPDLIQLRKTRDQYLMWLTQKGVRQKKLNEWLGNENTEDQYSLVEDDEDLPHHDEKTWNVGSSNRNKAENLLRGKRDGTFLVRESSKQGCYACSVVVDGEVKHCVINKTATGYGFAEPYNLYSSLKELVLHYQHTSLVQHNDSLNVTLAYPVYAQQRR

Row | IC50 [2] [nM] | SMILES | IC50 [1] [nM]
1 |  | CNC(=O)Nc1ccc(-c2nc(N3CCOCC3)c3cnn(C4CCN(C(=O)OC(C)(C)C)CC4)c3n2)cc1 [Compound 583, tert-butyl 4-(6-{4-[(methylcarbamoyl)amino]phenyl}-4-morpholin-4-yl-1H-pyrazolo[3,4-d]pyrimidin-1-yl)piperidine-1-carboxylate] | 450
2 | 80 | CNC(=O)Nc1ccc(-c2nc(N3CCOCC3)c3cnn(C4CCN(C(=O)c5ccccc5F)CC4)c3n2)cc1 [Example 354, 1-(4-{1-[1-(2-fluorobenzoyl)piperidin-4-yl]-4-morpholin-4-yl-1H-pyrazolo[3,4-d]pyrimidin-6-yl}phenyl)-3-methylurea] | 
3 | 800 | COC(=O)Nc1ccc(-c2nc(N3CCOCC3)c3cnn(C4CCN(C(=O)c5ccc(F)cc5F)CC4)c3n2)cc1 [Compound 693, methyl (4-{1-[1-(2,4-difluorobenzoyl)piperidin-4-yl]-4-morpholin-4-yl-1H-pyrazolo[3,4-d]pyrimidin-6-yl}phenyl)carbamate] | 
4 | 1650 | CC(=O)Nc1ccc(-c2nc(N3CCOCC3)c3cnn(C4CCCCO4)c3n2)cc1 (centres unmarked) [Compound 224, N-{4-[4-morpholin-4-yl-1-(tetrahydro-2H-pyran-2-yl)-1H-pyrazolo[3,4-d]pyrimidin-6-yl]phenyl}acetamide] | 
5 | 18 | CNC(=O)Nc1ccc(-c2nc(N3CCOCC3)c3cnn(C4CCN(Cc5ccc(Cl)cc5)CC4)c3n2)cc1 [Compound 639, 1-(4-{1-[1-(4-chlorobenzyl)piperidin-4-yl]-4-morpholin-4-yl-1H-pyrazolo[3,4-d]pyrimidin-6-yl}phenyl)-3-methylurea] | 
6 | 211 | CNC(=O)Nc1ccc(-c2nc(N3CCOCC3)c3cnn(C4CCN(C)CC4)c3n2)cc1 [Compound 646, 1-methyl-3-{4-[1-(1-methylpiperidin-4-yl)-4-morpholin-4-yl-1H-pyrazolo[3,4-d]pyrimidin-6-yl]phenyl}urea] | 
7 | 229 | O=C(NCCO)Nc1ccc(-c2nc(N3CCOCC3)c3cnn(C4CCN(C(=O)c5ccccc5)CC4)c3n2)cc1 [Compound 630, 1-{4-[1-(1-benzoylpiperidin-4-yl)-4-morpholin-4-yl-1H-pyrazolo[3,4-d]pyrimidin-6-yl]phenyl}-3-(2-hydroxyethyl)urea] | 
8 | 774 | CNC(=NC#N)Nc1ccc(-c2nc(N3CCOCC3)c3cnn(C4CCN(Cc5cccnc5)CC4)c3n2)cc1 [Compound 651, 2-cyano-1-methyl-3-(4-{4-morpholin-4-yl-1-[1-(pyridin-3-ylmethyl)piperidin-4-yl]-1H-pyrazolo[3,4-d]pyrimidin-6-yl}phenyl)guanidine] | 
9 | 1070 | COC(=O)Nc1ccc(-c2nc(N3CCOCC3)c3cnn(C4CCNCC4)c3n2)cc1 [Compound 703, methyl [4-(4-morpholin-4-yl-1-piperidin-4-yl-1H-pyrazolo[3,4-d]pyrimidin-6-yl)phenyl]carbamate] | 
10 | 725 | COC(=O)Nc1ccc(-c2nc(N3CCOCC3)c3cnn(C4CCN(C(=O)N5CCN(C)CC5)CC4)c3n2)cc1 [Compound 692, methyl [4-(1-{1-[(4-methylpiperazin-1-yl)carbonyl]piperidin-4-yl}-4-morpholin-4-yl-1H-pyrazolo[3,4-d]pyrimidin-6-yl)phenyl]carbamate] | 
11 | 42 | CNC(=O)Nc1ccc(-c2nc(N3CCOCC3)c3cnn(C4CCN(Cc5cccc(Cl)c5)CC4)c3n2)cc1 [Compound 640, 1-(4-{1-[1-(3-chlorobenzyl)piperidin-4-yl]-4-morpholin-4-yl-1H-pyrazolo[3,4-d]pyrimidin-6-yl}phenyl)-3-methylurea] | 
12 | 3110 | CCNC(=O)Nc1cc(F)c(-c2nc(N3CCOCC3)c3cnn(C4CCN(C(=O)c5cccnc5)CC4)c3n2)cc1F [Compound 710, 1-(2,5-difluoro-4-{4-morpholin-4-yl-1-[1-(pyridin-3-ylcarbonyl)piperidin-4-yl]-1H-pyrazolo[3,4-d]pyrimidin-6-yl}phenyl)-3-ethylurea] | 
13 | 514 | COC(=O)Nc1ccc(-c2nc(N3CCOCC3)c3cnn(C4CCN(C(=O)c5cccnc5)CC4)c3n2)cc1 [Example 223, methyl (4-{4-morpholin-4-yl-1-[1-(pyridin-3-ylcarbonyl)piperidin-4-yl]-1H-pyrazolo[3,4-d]pyrimidin-6-yl}phenyl)carbamate] | 
14 | 4030 | Nc1ccc(-c2nc(N3CCOCC3)c3cnn(C4CCN(C(=O)c5cccnc5)CC4)c3n2)c(F)c1 [Compound 704, 3-fluoro-4-{4-morpholin-4-yl-1-[1-(pyridin-3-ylcarbonyl)piperidin-4-yl]-1H-pyrazolo[3,4-d]pyrimidin-6-yl}aniline] | 
15 | 915 | Cn1ncc2c(N3CCOCC3)nc(-c3ccoc3)nc21 [Compound 3] | 
16 | 619 | COC(=O)Nc1ccc(-c2nc(N3CCOCC3)c3cnn(C4CCN(Cc5ccc(Cl)nc5)CC4)c3n2)cc1 [Compound 698, methyl [4-(1-{1-[(6-chloropyridin-3-yl)methyl]piperidin-4-yl}-4-morpholin-4-yl-1H-pyrazolo[3,4-d]pyrimidin-6-yl)phenyl]carbamate] | 
17 | 363 | N#CNC(=O)Nc1ccc(-c2nc(N3CCOCC3)c3cnn(C4CCN(Cc5cccnc5)CC4)c3n2)cc1 [Compound 653, N′-cyano-N-(4-{4-morpholin-4-yl-1-[1-(pyridin-3-ylmethyl)piperidin-4-yl]-1H-pyrazolo[3,4-d]pyrimidin-6-yl}phenyl)carbamimidic acid] | 
18 | 104 | CNC(=O)Nc1ccc(-c2nc(N3CCOCC3)c3cn[nH]c3n2)cc1 [Compound 927, 1-methyl-3-[4-(4-morpholin-4-yl-1H-pyrazolo[3,4-d]pyrimidin-6-yl)phenyl]urea] | 
19 | 2000 | COCOc1cncc(-c2nc(N3CCOCC3)c3cnn(C4CCN(Cc5ccccc5)CC4)c3n2)c1 [Compound 931, 1-(1-benzylpiperidin-4-yl)-6-[5-(methoxymethoxy)pyridin-3-yl]-4-morpholin-4-yl-1H-pyrazolo[3,4-d]pyrimidine] | 
20 | 2550 | COC(=O)Nc1ccc(-c2nc(N3CCOCC3)c3cnn(C4CCCCO4)c3n2)cc1 (centres unmarked) [Compound 274, methyl {4-[4-morpholin-4-yl-1-(tetrahydro-2H-pyran-2-yl)-1H-pyrazolo[3,4-d]pyrimidin-6-yl]phenyl}carbamate] | 
21 | 4110 | CCCOC(=O)Nc1ccc(-c2nc(N3CCOCC3)c3cnn(C4CCN(Cc5ccccc5)CC4)c3n2)cc1 [Compound 255, propyl {4-[1-(1-benzylpiperidin-4-yl)-4-morpholin-4-yl-1H-pyrazolo[3,4-d]pyrimidin-6-yl]phenyl}carbamate] | 
22 | 480 | CN(C)CC=CC(=O)N1CCC(n2ncc3c(N4CCOCC4)nc(-c4ccc5[nH]ccc5c4)nc32)CC1 [Compound 957, 4-{4-[6-(1H-indol-5-yl)-4-morpholin-4-yl-1H-pyrazolo[3,4-d]pyrimidin-1-yl]piperidin-1-yl}-N,N-dimethyl-4-oxobut-2-en-1-amine] | 
23 | 105 | CNC(=O)Nc1ccc(-c2nc(N3CCOCC3)c3cn[nH]c3n2)cc1 [Example 236, 1-methyl-3-[4-(4-morpholin-4-yl-1H-pyrazolo[3,4-d]pyrimidin-6-yl)phenyl]urea] | 
24 | 112 | CNC(=O)Nc1ccc(-c2nc(N3CCOCC3)c3cnn(C4CCN(Cc5ccncc5)CC4)c3n2)cc1 [Compound 670, 1-methyl-3-(4-{4-morpholin-4-yl-1-[1-(pyridin-4-ylmethyl)piperidin-4-yl]-1H-pyrazolo[3,4-d]pyrimidin-6-yl}phenyl)urea] | 
25 | 1260 | O=C(O)Cc1ccc(-c2nc(N3CCOCC3)c3cnn(C4CCN(Cc5ccccc5)CC4)c3n2)cc1 [Compound 353, {4-[1-(1-benzylpiperidin-4-yl)-4-morpholin-4-yl-1H-pyrazolo[3,4-d]pyrimidin-6-yl]phenyl}acetic acid] | 
26 | 48 | CNCCNC(=O)Nc1ccc(-c2nc(N3CCOCC3)c3cnn(C4CCN(C(=O)c5ccccc5)CC4)c3n2)cc1 [Compound 631, 1-{4-[1-(1-benzoylpiperidin-4-yl)-4-morpholin-4-yl-1H-pyrazolo[3,4-d]pyrimidin-6-yl]phenyl}-3-[2-(methylamino)ethyl]urea] | 
27 | 1830 | COC(=O)Nc1ccc(-c2nc(N3CCOCC3)c3cnn(C4CCN(Cc5cccnc5OC)CC4)c3n2)cc1 [Compound 696, methyl [4-(1-{1-[(2-methoxypyridin-3-yl)methyl]piperidin-4-yl}-4-morpholin-4-yl-1H-pyrazolo[3,4-d]pyrimidin-6-yl)phenyl]carbamate] | 
28 | 1580 | CCOC(=O)Nc1ccc(-c2nc(N3CCOCC3)c3cnn(C4CCN(C(=O)c5ccccc5)CC4)c3n2)cc1 [Compound 628, ethyl {4-[1-(1-benzoylpiperidin-4-yl)-4-morpholin-4-yl-1H-pyrazolo[3,4-d]pyrimidin-6-yl]phenyl}carbamate] | 
29 | 1650 | CC(=O)Nc1ccc(-c2nc(N3CCOCC3)c3cnn(C4CCCCO4)c3n2)cc1 (centres unmarked) [Compound 925, N-{4-[4-morpholin-4-yl-1-(tetrahydro-2H-pyran-2-yl)-1H-pyrazolo[3,4-d]pyrimidin-6-yl]phenyl}acetamide] | 

Row | SMILES | IC50 [2] [nM] | IC50 [1] [nM]
30 | Nc1ccc(-c2nc(N3CCOCC3)c3cn[nH]c3n2)cc1 [Compound 531, 4-(4-morpholin-4-yl-1H-pyrazolo[3,4-d]pyrimidin-6-yl)aniline] | 1610 | 
31 | NCCC(=O)Nc1ccc(-c2nc(N3CCOCC3)c3cn[nH]c3n2)cc1 [Compound 529, N-[4-(4-morpholin-4-yl-1H-pyrazolo[3,4-d]pyrimidin-6-yl)phenyl]-b-alaninamide] | 202 | 
32 | Nc1ccc(-c2nc(N3CCOCC3)c3cn[nH]c3n2)cc1 [Example 285, 4-(4-morpholin-4-yl-1H-pyrazolo[3,4-d]pyrimidin-6-yl)aniline] | 1610 | 
